One experiment addresses PLK1 (Homo sapiens, UniProt P53350). As to the kind of experiment: in vitro enzymatic inhibitory activity, PLK1 kinase, 10-dose IC50 mode. It counts as biochemical. As to conditions: 10 μM ATP. The procedure: (§1) Compounds were tested against two kinases.
(§2) Data includes raw data, % Enzyme activity (relative to DMSO controls) and curve fits.

Experiment [1] concerns the target T1, WEE1 (Homo sapiens, UniProt P30291).
T1 construct: Drug treated cells are fixed and stained with propidium iodide (PI); endogenous in cells
As to the kind of experiment: in vitro enzymatic inhibitory activity, WEE1 kinase, 10-dose IC50 mode. It counts as biochemical. The note with it: 10 μM ATP. The procedure:
as §1, §2

The target of experiment [2] is T1, WEE1. Nature of the experiment: Guava flow cytometry cell cycle assay (DNA content per cell, propidium iodide). In kind it is cell-based. The note with it: for WEE1 Guava MEC Guava MEC: single agent, unit assumed; for WEE1 Guava MEC with 20 nM GEM: in µM (unit assumed). The text has this: In this example, compounds described herein were subject to an assay that detects changes the phases of the cell cycle upon drug treatment, permitting the identification of drugs that affect cell proliferation in a specific manner. For example, problematic DNA replication causes the percentage of cells in S phase to increase. Thus, quantification of cells in S phase permits identification of drugs that cause defects in DNA replication. Similarly, drugs that selectively defects in progression through G2/M can also be identified. Moreover, synergy between assayed drugs and known cell cycle regulators can be determined, as exemplified by the effect of ATR inhibition when combined with agents that slow DNA replication, which causes replication fork collapse into DSBs and complete loss of DNA synthesis. Two novel drugs can also be combined to quantify synergistic effects on specific cell cycle phases.
The assay operates by the quantification of DNA content per cell by flow cytometry. Cells are assessed for effects on cell cycle using a Guava EasyCyte™ flow cytometer (Austin, TX). Drug treated cells are fixed and stained with propidium iodide (PI) and resuspended in phosphate-buffered saline containing the PI staining buffer. During flow cytometry, PI is excited at 528 nm and is detected in a 610/20 bandpass. Readout of the […] is optical density of DNA-staining dye. The assay generates a histogram showing count of cells by amount of DNA, which is an indicator of place in the cell cycle. This rapid assay detects relative changes in the cell cycle upon drug treatment upon comparison vehicle-treated and single-agent controls for detection of combinatorial interactions. See, Table 4.
In general terms: Flow cytometry measures light scatter and fluorescence of single cells or particles in a stream.

T1 sequence (P30291 whole entry): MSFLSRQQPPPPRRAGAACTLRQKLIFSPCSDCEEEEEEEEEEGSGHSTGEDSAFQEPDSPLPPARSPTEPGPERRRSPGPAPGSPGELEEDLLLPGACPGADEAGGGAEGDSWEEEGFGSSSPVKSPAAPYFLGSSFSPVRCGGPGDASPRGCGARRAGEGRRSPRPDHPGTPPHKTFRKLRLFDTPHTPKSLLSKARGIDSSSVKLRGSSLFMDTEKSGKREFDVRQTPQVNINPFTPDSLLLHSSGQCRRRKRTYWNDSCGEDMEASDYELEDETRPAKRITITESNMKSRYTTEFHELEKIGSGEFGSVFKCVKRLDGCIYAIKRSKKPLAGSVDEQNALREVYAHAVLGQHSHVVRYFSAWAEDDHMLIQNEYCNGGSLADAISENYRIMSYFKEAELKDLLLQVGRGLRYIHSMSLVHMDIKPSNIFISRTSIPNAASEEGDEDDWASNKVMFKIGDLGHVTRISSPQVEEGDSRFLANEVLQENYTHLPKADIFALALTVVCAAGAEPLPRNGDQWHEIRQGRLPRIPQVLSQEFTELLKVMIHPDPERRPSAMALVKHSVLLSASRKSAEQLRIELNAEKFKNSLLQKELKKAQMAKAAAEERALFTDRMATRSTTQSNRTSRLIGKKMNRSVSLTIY
PLK1, sequence (P53350 whole entry, species assumed): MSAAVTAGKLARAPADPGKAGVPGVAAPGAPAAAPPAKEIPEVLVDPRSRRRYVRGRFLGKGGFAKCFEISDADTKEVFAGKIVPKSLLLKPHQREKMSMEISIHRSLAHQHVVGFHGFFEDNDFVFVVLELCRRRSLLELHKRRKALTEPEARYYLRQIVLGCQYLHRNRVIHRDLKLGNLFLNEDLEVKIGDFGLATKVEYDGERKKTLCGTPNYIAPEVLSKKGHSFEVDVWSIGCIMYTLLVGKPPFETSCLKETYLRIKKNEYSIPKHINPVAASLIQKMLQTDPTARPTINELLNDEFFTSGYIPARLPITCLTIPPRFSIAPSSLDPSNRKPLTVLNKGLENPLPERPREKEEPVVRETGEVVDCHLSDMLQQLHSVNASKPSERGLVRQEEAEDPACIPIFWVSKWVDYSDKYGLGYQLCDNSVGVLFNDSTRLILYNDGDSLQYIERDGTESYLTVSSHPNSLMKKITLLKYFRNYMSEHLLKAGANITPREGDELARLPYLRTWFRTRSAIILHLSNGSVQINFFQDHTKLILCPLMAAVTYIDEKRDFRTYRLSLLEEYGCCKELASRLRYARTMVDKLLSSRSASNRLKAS

As to `C=CCn1c(=O)c2cnc(Nc3ccc(N4CCN(C)CC4)cc3)nc2n1-c1cccc(C(C)(C)O)n1` [AZD1775], half-maximal inhibition against PLK1 (IC50) was put at 159 nM.
On to `CN1CCC(n2cc(Nc3ncc4c(=O)n(-c5c(Cl)cccc5Cl)cc(Br)c4n3)cn2)CC1` [Compound P1, 8-bromo-6-(2,6-dichlorophenyl)-2-[[1-(1-methyl-4-piperidyl)pyrazol-4-yl]amino]pyrido[4,3-d]pyrimidin-5-one], for which the IC50 (usually the concentration at which inhibition is half-maximal) against WEE1 [1] was 41 nM. On WEE1 [2], the WEE1 Guava MEC Guava MEC was found to be 0.625 µM and the “WEE1 Guava MEC with 20 nM GEM” value was 0.156.
In the same order, the values of `CCc1cn(-c2c(Cl)cccc2Cl)c(=O)c2cnc(Nc3cnn(C4CCNCC4)c3)nc12` [Compound P4, 6-(2,6-dichlorophenyl)-8-ethyl-2-[[1-(4-piperidyl)pyrazol-4-yl]amino]pyrido[4,3-d]pyrimidin-5-one] are 47 nM, 1.25 µM and 0.625.
The molecule `O=c1c2cnc(Nc3ccc4c(c3)CNCC4)nc2c(Br)cn1-c1c(Cl)cccc1Cl` [Compound P10, 8-bromo-6-(2,6-dichlorophenyl)-2-(1,2,3,4-tetrahydroisoquinolin-7-ylamino)pyrido[4,3-d]pyrimidin-5-one] yielded a concentration for half-maximal inhibition (IC50) against WEE1 [1] of 27 nM. Moreover, on WEE1 [2], the WEE1 Guava MEC Guava MEC stood at 0.313 µM and the “WEE1 Guava MEC with 20 nM GEM” value amounted to 0.156.
On WEE1 [1], `CN1CCc2ccc(Nc3ncc4c(=O)n(-c5c(Cl)cccc5Cl)cc(Br)c4n3)cc2C1` [Compound P11, 8-bromo-6-(2,6-dichlorophenyl)-2-[(2-methyl-3,4-dihydro-1H-isoquinolin-7-yl)amino]pyrido[4,3-d]pyrimidin-5-one] displayed an IC50 of 31 nM. On WEE1 [2], the WEE1 Guava MEC Guava MEC turned out to be 0.313 µM and the “WEE1 Guava MEC with 20 nM GEM” value is 0.156.
On to `Cc1cccc(F)c1-n1cc(Br)c2nc(Nc3cnn(C4CCNCC4)c3)ncc2c1=O` [Compound P25, 8-bromo-6-(2-fluoro-6-methyl-phenyl)-2-[[1-(4-piperidyl)pyrazol-4-yl]amino]pyrido[4,3-d]pyrimidin-5-one], for which, at WEE1 [2], the WEE1 Guava MEC Guava MEC is 5 µM and the “WEE1 Guava MEC with 20 nM GEM” value is listed as 0.625.
In the same order, the values of `Cc1cccc(F)c1-n1cc(Br)c2nc(Nc3cnn(C4CCN(C)CC4)c3)ncc2c1=O` [Compound P26, 8-bromo-6-(2-fluoro-6-methyl-phenyl)-2-[[1-(1-methyl-4-piperidyl)pyrazol-4-yl]amino]pyrido[4,3-d]pyrimidin-5-one] are 5 µM and 0.625.
As for `Cc1cccc(C)c1-n1cc(Br)c2nc(Nc3cnn(C4CCN(C)CC4)c3)ncc2c1=O` [Compound P27, 8-bromo-6-(2,6-dimethylphenyl)-2-[[1-(1-methyl-4-piperidyl)pyrazol-4-yl]amino]pyrido[4,3-d]pyrimidin-5-one], on WEE1 [2], the WEE1 Guava MEC Guava MEC was 1.25 µM and the “WEE1 Guava MEC with 20 nM GEM” value came to 0.625.

(Values after patent US20240254123A1, “PYRIDOPYRIMIDINE DERIVATIVES USEFUL AS WEE1 KINASE INHIBITORS” (APREA THERAPEUTICS, INC., priority 2021, published 2024).)
